The test system of data set [1] is tetrabenzazine-induced depression. Kind of data set: inhibition of tetrabenzazine-induced depression (ptosis), antidepressant activity. The conditions noted are these: Mus musculus, ip, read-out: Antidepressant ED50 (50% inhibition of ptosis of tetrabenzazine-induced depression). In kind it is in vivo, mice. From the text: (§1) The results are expressed in ED50 's (intraperitoneal dose effecting a 50% inhibition of ptosis of tetrabenzazine-induced depression in mice). The doses are in mg/kg of body weight. […] The toxicity data is expressed in ALD50 's (the acute lethal intraperitoneal dose, mg/kg of body weight, in 50% of the mice tested).

Data set [2] in a line: acute lethal toxicity (ALD50). The settings on record: mouse, in vivo, ip; intraperitoneal, groups of four mice; read-out: Toxicity ALD50 (acute lethal dose in 50% of the mice tested).
From the text: as §1

Data set [3] concerns 2-phenyl-1,4-quinone-induced writhing. Kind of data set: 2-phenyl-1,4-quinone-induced writhing assay (analgesia). Type of data set: in vivo. The conditions noted are these: 50 mg/kg of body weight oral dose, mice. From the text: Exptl. Biol. Med., Vol. 45, 729 (1957)].
For orientation: An intraperitoneal irritant provokes the stretching counted in writhing tests.

Data set [4] relates to supra maximal electro shock. Kind of data set: protection from supra maximal electro shock, anticonvulsant activity (method of Woodbury and Davenport). Type of data set: in vivo. The conditions noted are these: intraperitoneal dose of about 5 mg/kg of body weight. The protocol:
The compounds of the invention are useful as anticonvulsant agents for mammals, as determined by the method of Woodbury, L. A. and Davenport, V. D., in Arch. Int. Pharmacodynam, Vol. 92, (1952) at pages 97-107. For example, 1'-amino-1,3-dihydro-3-phenylspiro[isobenzofuran-1,4'-piperidine]at an intraperitoneal dose of about 5 mg/kg of body weight produced a 50% protection from the effect of a supra maximal electro shock. This datum illustrates the utility of the compounds of the invention for the treatment of convulsion in mammals when administered in amounts ranging from 0.1 to 50 mg/kg of body weight per day.

Where two headings read alike, the source gives them in different places.

Usually ED50 stands for the dose that gives a 50% effect, or the effect in half of the subjects. As for `C[N+]1([O-])CCC2(CC1)OC(c1ccccc1)c1ccccc12` (stereo not drawn) [Example 12, 1,3-dihydro-1'-methyl-3-phenylspiro[isobenzofuran-1,4'-piperidine]-1'-oxide], the ED50 in data set [1] is 6.5 mg/kg. For the same compound, the LD50 in data set [2] is 280 mg/kg.

For `O=C(ON1CCC2(CC1)OC(c1ccccc1)c1ccccc12)c1ccccc1` (stereo not drawn) [Example 4, 1'-benzoyloxy-1,3-dihydro-3-phenylspiro[isobenzofuran-1,4'-piperidine]], the inhibition of writhing in data set [3] is 54%.

On to `NN1CCC2(CC1)OC(c1ccccc1)c1ccccc12` (stereo not drawn) [Example 2, 1'-amino-1,3-dihydro-3-phenylspiro[isobenzofuran-1,4'-piperidine]], for which, in data set [1] (intraperitoneal, mice), the median effective dose (ED50) was 10.3 mg/kg. For the same compound, in data set [3], the inhibition of writhing was determined as 53%. Moreover, the “protection from the effect of a supra maximal electro shock” value in data set [4] came to 50%. Besides, the LD50 in data set [2] came out at 100 mg/kg.

In data set [3], `[O-][N+]1(Cc2ccccc2)CCC2(CC1)OC(c1ccccc1)c1ccccc12` (stereo not drawn) [Example 13, 1'-benzyl-1,3-dihydro-3-phenylspiro[isobenzofuran-1,4'-piperidine]-1'-oxide] yielded an inhibition of writhing of 48%.

In the case of `ON1CCC2(CC1)OC(c1ccccc1)c1ccccc12` (stereo not drawn) [Example 8, 1'-hydroxy-1,3-dihydro-3-phenylspiro[isobenzofuran-1,4'-piperidine]], the ED50 in data set [1] (intraperitoneal, mice) stood at 1.4 mg/kg. The compound further had an inhibition of writhing in data set [3] of 53%. Moreover, the LD50 in data set [2] is more than 562 mg/kg.

On to `COc1ccc2c(c1)C1(CCN(O)CC1)OC2c1ccccc1` (stereo not drawn) [Example 10, 1'-hydroxy-1,3-dihydro-6-methoxy-3-phenylspiro[isobenzofuran-1,4'-piperidine]], for which the ED50 in data set [1] (intraperitoneal, mice) was 3.2 mg/kg. Besides, in data set [2], the LD50 is more than 562 mg/kg.

With `ON1CCC2(CC1)OC(c1ccc(F)cc1)c1ccccc12` (stereo not drawn) [Example 11, 1'-hydroxy-1,3-dihydro-3-(4-fluorophenyl)spiro[isobenzofuran-1,4'-piperidine]], the ED50 in data set [1] (intraperitoneal, mice) amounted to 4 mg/kg. For the same compound, the LD50 in data set [2] worked out at 316 mg/kg.

Take `COc1ccc(C2OC3(CCN(O)CC3)c3ccccc32)cc1` (stereo not drawn) [Example 9, 1'-hydroxy-1,3-dihydro-3-(4-methoxyphenyl)spiro[isobenzofuran-1,4'-piperidine]]: the ED50 in data set [1] (intraperitoneal, mice) is 2.6 mg/kg. Further, in data set [2], the LD50 was more than 562 mg/kg.

In turn, `CC(C)NN1CCC2(CC1)OC(c1ccccc1)c1ccccc12` (stereo not drawn) [Example 3, 1'-(isopropylamino)1,3'-dihydro-3-phenylspiro[isobenzofuran-1,4'-piperidine]] displayed an inhibition of writhing in data set [3] of 27%.

The values are drawn from patent publication US4024263A, “1,3-Dihydrospiro[isobenzofuran-1,4'-piperidine]s” (American Hoechst Corporation, priority 1975, dated 1977).
